We go through three compounds from ChEMBL document CHEMBL3102782, “Current status of the research and development of diacylglycerol O-acyltransferase 1 (DGAT1) inhibitors” (J Med Chem, 2013).

The subject of data set [1] is Mus musculus. Briefly: Toxicity in DIO C57BL6 mouse assessed as body weight loss at 30 mg/kg, po administered qd from day 1 to 7 and bid from day 8 to 14 followed by single dose on day 15 morning. The data set is classed as organism-based. Set-up: dose 30 mg/kg, route oral. As to conditions: in vivo.
The species entered for data set [2] is Homo sapiens. In words: Reduction of triglyceride AUC in human at 60 mg. The data set is classed as functional. Set-up: scale not given: the % may be the effect or the level left.
The species entered for data set [3] is Homo sapiens. Briefly: Reduction of triglyceride AUC in human receiving 60% fat meal at >5 mg. The data set is classed as functional. Set-up: scale not given: the % may be the effect or the level left.
The species named for data set [4] is Homo sapiens. In words: Reduction of triglyceride AUC in human relative to baseline. The data set is classed as functional. Set-up: scale not given: the % may be the effect or the level left.
Data set [5] is described as follows: Tmax in human. The data set is classed as ADME, organism-based. As to conditions: in vivo.
The species entered for data set [6] is Homo sapiens. Briefly: Reduction of triglyceride AUC in human. The data set is classed as functional, organism-based.
Data set [7] concerns Homo sapiens. In words: Reduction in triglycerides in familial chylomicronemia syndrome patients measured after 3 weeks of compound dosing. Set-up: scale not given: the % may be the effect or the level left. The data set is classed as functional.

Where only a bound is given, the exact number is not on record here.

`CC1(C)Oc2ncnc(N)c2N=C1c1ccc([C@H]2CC[C@H](CC(=O)O)CC2)cc1`: the Activity in data set [1] worked out at 6.7%.
Regarding `Cc1nc(C)c(-c2ccc(C3CCC(CC(=O)O)CC3)cc2)nc1C(N)=O` (configuration not stated) [AZD-7687], the Activity is given as 50% in data set [2], above 75% in data set [3] and 84% in data set [4]. In addition, the time of peak concentration (Tmax) (as a rule, the time from dosing to the highest level) in data set [5] came out at 1 h. In data set [6], a half-maximal effect (EC50) was put at 440 nM.
As for `O=C(O)C[C@H]1CC[C@H](c2ccc(-c3ccc(Nc4ccc(C(F)(F)F)nc4)cn3)cc2)CC1` [PRADIGASTAT], the Activity in data set [7] was determined as 38.4%.
